Columns and labels:
luteinizing hormone (LH) = test: Plasma r-LH in trunk blood by radioimmunoassay; type: in vivo, rat; details: presumptive proestrus, OVX rats, 10 μg s.c., mean±sem, n=7
uterine horns = test: Examination of the uterine horns; type: in vivo, rat; details: OVX rats, 10 μg s.c., next day
[1] = 10 μg EB s.c., for up to 30 h in ovariectomized rats; cited from earlier work

SMILES: C[C@]12CC[C@@H]3c4ccc(OC(=O)c5ccccc5)cc4CC[C@H]3[C@@H]1CC[C@@H]2O [EB, estradiol benzoate]
- Plasma r-LH levels (luteinizing hormone (LH)): 7.5 ± 3.1 ng/mL
- uterine horns (uterine horns): markedly distended with fluid
- blood levels of E2 [1]: 100-120 pg E2/ml

From patent US20010011084A1, “USE OF ESTROGEN TO MODIFY THE AMOUNT OF SEROTONIN TRANSPORTER OR ITS MRNA” (priority 1996, published 2001)
